These compounds were tested against T1, human FXR (Homo sapiens, UniProt Q96RI1) (assay: transient human FXR/Gal4-luciferase reporter assay). Conditions: Gal4-hFXR fusion construct, luciferase reporter in HEK293 cells; overnight incubation; response as percentage of 8 μM GW-4064 control.
T1 construct: expressed in transfected cells; host or cells: HEK293 cells stably carrying a 5xGal4 response element-luciferase reporter, transiently transfected with pcDNA3.1-Gal4-FXR
T1 sequence (Q96RI1 262-486 limits assumed): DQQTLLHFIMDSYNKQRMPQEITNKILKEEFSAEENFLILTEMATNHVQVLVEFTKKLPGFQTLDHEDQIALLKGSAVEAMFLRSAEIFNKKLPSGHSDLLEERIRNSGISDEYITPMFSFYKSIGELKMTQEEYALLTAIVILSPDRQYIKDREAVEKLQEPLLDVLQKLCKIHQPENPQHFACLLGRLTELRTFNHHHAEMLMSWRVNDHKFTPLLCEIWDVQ
Format: cell-based
Method in brief: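 HEK293 cells stably carrying a 5×Gal4-response-element firefly luciferase reporter were transiently transfected with a Gal4 DBD-human FXR LBD fusion, then treated overnight with compounds at 37 °C. Steady-Glo luminescence, minus DMSO background, was expressed as percent of the response to 8 μM GW-4064.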

SMILES	EC50
CC(C)Oc1cccc(N(CC23CCC(c4nc(C(C)(C)C)no4)(CC2)CC3)C(=O)[C@H]2C[C@](O)(C(F)(F)F)C2)c1 [Example 123, (1S,3S)—N-((4-(3-(tert-butyl)-1,2,4-oxadiazol-5-yl)bicyclo[2.2.2]octan-1-yl)methyl)-3-hydroxy-N-(3-isopropoxyphenyl)-3-(trifluoromethyl)cyclobutane-1-carboxamide]	2000 nM
CC(C)Oc1cccc(N(CC23CCC(c4nc(C(C)(C)C)no4)(CC2)CC3)C(=O)C23CC(F)(C2)C3)c1 [Example 124, N-((4-(3-(tert-butyl)-1,2,4-oxadiazol-5-yl)bicyclo[2.2.2]octan-1-yl)methyl)-3-fluoro-N-(3-isopropoxyphenyl)bicyclo[1.1.1]pentane-1-carboxamide]	2000 nM
CC(C)Oc1cccc(N(CC23CCC(c4noc(C(C)(F)F)n4)(CC2)CC3)C(=O)[C@H]2C[C@@](C)(O)C2)c1 [Example 125, (1S,3S)—N-((4-(5-(1,1-difluoroethyl)-1,2,4-oxadiazol-3-yl)bicyclo[2.2.2]octan-1-yl)methyl)-3-hydroxy-N-(3-isopropoxyphenyl)-3-methylcyclobutane-1-carboxamide]	1520 nM
CC(C)Oc1cccc(N(CC23CCC(c4noc(C(C)(F)F)n4)(CC2)CC3)C(=O)[C@H]2C[C@](O)(C(F)(F)F)C2)c1 [Example 126, (1S,3S)-N-((4-(5-(1,1-difluoroethyl)-1,2,4-oxadiazol-3-yl)bicyclo[2..2.2]octan-1-yl)methyl)-3-hydroxy-N-(3-isopropoxyphenyl)-3-(trifluoromethyl)cyclobutane-1-carboxamide]	610 nM
CC(C)(C)c1noc(C23CCC(CN(C(=O)C45CC(F)(C4)C5)c4ccc(F)c(C(C)(C)O)c4)(CC2)CC3)n1 [Example 128, N-((4-(3-(tert-butyl)-1,2,4-oxadiazol-5-yl)bicyclo[2.2.2]octan-1-yl)methyl)-3-fluoro-N-(4-fluoro-3-(2-hydroxypropan-2-yl)phenyl)bicyclo[1.1.1]pentane-1-carboxamide]	4000 nM
CC(C)(C)c1noc(C23CCC(CN(C(=O)C45CC(F)(C4)C5)c4cccc(Br)c4)(CC2)C3)n1 [Example 132, N-(3-bromophenyl)-N-((4-(3-(tert-butyl)-1,2,4-oxadiazol-5-yl)bicyclo[2.2.1]heptan-1-yl)methyl)-3-fluorobicyclo[1.1.1]pentane-1-carboxamide]	498 nM
CC(C)(C)c1noc(C23CCC(CN(c4cccc(Br)c4)C(=O)[C@H]4C[C@](O)(C(F)(F)F)C4)(CC2)C3)n1 [Example 133, (1s, 3s)-N-(3-bromophenyl)-N-((4-(3-(tert-butyl)-1,2,4-oxadiazol-5-yl)bicyclo[2.2.1]heptan-1-yl)methyl)-3-hydroxy-3-(trifluoromethyl) cyclobutane-1-carboxamide]	4000 nM
CC(F)(F)c1nc(C23CCC(CN(C(=O)C4CCS(=O)(=O)CC4)c4cc(F)cc(C#N)c4)(CC2)CC3)no1 [Example 138, N-(3-cyano-5-fluorophenyl)-N-((4-(5-(1,1-difluoroethyl)-1,2,4-oxadiazol-3-yl)bicyclo[2.2.2]octan-1-yl)methyl)tetrahydro-2H-thiopyran-4-carboxamide 1,1-dioxide]	4000 nM
NC(=O)c1nc(C23CCC(CN(c4cccc(Br)c4)C(=O)[C@H]4C[C@](O)(C(F)(F)F)C4)(CC2)CC3)no1 [Example 139, 3-(4-(((1S,3S)—N-(3-bromophenyl)-3-hydroxy-3-(trifluoromethyl)cyclobutane-1-carboxamido)methyl)bicyclo[2.2.2]octan-1-yl)-1,2,4-oxadiazole-5-carboxamide]	1450 nM
NC(=O)c1nc(C23CCC(CN(C(=O)C45CC(F)(C4)C5)c4cccc(Br)c4)(CC2)CC3)no1 [Example 140, 3-(4-((N-(3-bromophenyl)-3-fluorobicyclo[1.1.1]pentane-1-carboxamido)methyl)bicyclo[2.2.2]octan-1-yl)-1,2,4-oxadiazole-5-carboxamide]	721 nM

Now those with a lower EC50, led by results:

EC50	SMILES
434 nM	CC(C)(F)c1nc(C23CCC(CN(C(=O)C45CC(C(C)(C)O)(C4)C5)c4cccc(Br)c4)(CC2)CC3)no1 [Example 134, N-(3-bromophenyl)-N-((4-(5-(2-fluoropropan-2-yl)-1,2,4-oxadiazol-3-yl)bicyclo[2.2.2]octan-1-yl)methyl)-3-(2-hydroxypropan-2-yl)bicyclo[1.1.1]pentane-1-carboxamide]
256 nM	CC(F)(F)c1nc(C23CCC(CN(c4cc(F)cc(C#N)c4)C(=O)[C@H]4C[C@](O)(C(F)(F)F)C4)(CC2)CC3)no1 [Example 136, (1S,3S)-N-(3-cyano-5-fluorophenyl)-N-((4-(5-(1,1-difluoroethyl)-1,2,4-oxadiazol-3-yl)bicyclo[2.2.2]octan-1-yl)methyl)-3-hydroxy-3-(trifluoromethyl)cyclobutane-1]
228 nM	CC(F)(F)c1nc(C23CCC(CN(C(=O)NC[C@H](F)C(C)(C)O)c4cccc(Br)c4)(CC2)CC3)no1 [Example 131, (S)-1-(3-bromophenyl)-1-((4-(5-(1,1-difluoroethyl)-1,2,4-oxadiazol-3-yl)bicyclo[2.2.2]octan-1-yl)methyl)-3-(2-fluoro-3-hydroxy-3-methylbutyl)urea]
156 nM	CC(C)Oc1cccc(N(CC23CCC(c4noc(C(C)(F)F)n4)(CC2)CC3)C(=O)C23CC(F)(C2)C3)c1 [Example 127, N-((4-(5-(1,1-difluoroethyl)-1,2,4-oxadiazol-3-yl)bicyclo[2.2.2]octan-1-yl)methyl)-3-fluoro-N-(3-isopropoxyphenyl)bicyclo[1.1.1]pentane-1-carboxamide]
123 nM	CCNC(=O)c1cc(N(CC23CCC(c4nc(C(C)(C)C)no4)(CC2)CC3)C(=O)C23CC(F)(C2)C3)ccc1F [Example 122, N-((4-(3-(tert-butyl)-1,2,4-oxadiazol-5-yl)bicyclo[2.2.2]octan-1-yl)methyl)-N-(3-(ethylcarbamoyl)-4-fluorophenyl)-3-fluorobicyclo[1.1.1]pentane-1-carboxamide]
103 nM	CC(F)(F)c1nc(C23CCC(CN(C(=O)C4CC(F)(F)C4)c4cc(F)cc(C#N)c4)(CC2)CC3)no1 [Example 137, N-(3-cyano-5-fluorophenyl)-N-((4-(5-(1,1-difluoroethyl)-1,2,4-oxadiazol-3-yl)bicyclo[2.2.2]octan-1-yl)methyl)-3,3-difluorocyclobutane-1-carboxamide]
91 nM	CCOc1cccc(N(CC23CCC(c4noc(C(C)(F)F)n4)(CC2)CC3)C(=O)C23CC(F)(C2)C3)c1 [Example 130, N-((4-(5-(1,1-difluoroethyl)-1,2,4-oxadiazol-3-yl)bicyclo[2.2.2]octan-1-yl)methyl)-N-(3-ethoxyphenyl)-3-fluorobicyclo[1.1.1]pentane-1-carboxamide]
73 nM	COc1cccc(N(CC23CCC(c4noc(C(C)(F)F)n4)(CC2)CC3)C(=O)C23CC(F)(C2)C3)c1 [Example 129, N-((4-(5-(1,1-difluoroethyl)-1,2,4-oxadiazol-3-yl)bicyclo[2.2.2]octan-1-yl)methyl)-3-fluoro-N-(3-methoxyphenyl)bicyclo[1.1.1]pentane-1-carboxamide]
18 nM	CC(F)(F)c1nc(C23CCC(CN(C(=O)C45CC(F)(C4)C5)c4cc(F)cc(C#N)c4)(CC2)CC3)no1 [Example 135, N-(3-cyano-5-fluorophenyl)-N-((4-(5-(1,1-difluoroethyl)-1,2,4-oxadiazol-3-yl)bicyclo[2.2.2]octan-1-yl)methyl)-3-fluorobicyclo[1.1.1]pentane-1-carboxamide]

Reference: patent US12319676B2, “Substituted amide compounds useful as farnesoid X receptor modulators” (BRISTOL-MYERS SQUIBB COMPANY, priority 2019, dated 2025)
